Results taken from US9957236B2, “Selective inhibitors interfering with fibroblast growth factor receptor and FRS2 interaction for the prevention and treatment of cancer and other diseases” (LIMITED LIABILITY COMPANY “RUSSIAN PHARMACEUTICAL …, priority 2014, dated 2018).

Tests used:
[1] = test system: triple negative breast cancer SUM52PE; assay: Tumor growth of SUM52PE xenograft in nude mice; assay type: in vivo
Protocol: Females of immunodeficient mice (nude) at the age of 8 weeks were administered 2×10^6 tumor cells of human cell lines with various expression of FGFR2: • cell line of triple-negative breast cancer SUM52PE strongly expressing FGFR2 (purchased from Asterand, Inc. (Detroit, Mich.) • cell line of triple negative breast cancer HS578T weakly expressing FGFR2 (purchased from ATCC (CRL-125) • cell line of non-small cell lung cancer NCI-H226 not expressing FGFR2 (purchased from ATCC (CRL-5826)
After the tumor growth got established (1 mm^3), the mice were divided into control and treatment groups in accordance with the tumor type.
Control group 1 (N=10): SUM52PE, administration of water through a stomach tube, daily.
Treatment group 1 (N=10): SUM52PE, administration of inhibitor RPT835 through a stomach tube in a dose of 30 mg/kg, daily.
Size of tumor and weight of animals were measured every 3 day. The mice underwent euthanasia when the tumor reached the size of 2,000 mm^3 or on the 60 day of the experiment.

[2] = test system: HS578T breast cancer cells; assay: Crystal Violet proliferation assay, HS578T; assay type: cell-based; conditions: low FGFR2 expression, bFGF 100 ng/ml, 7 days
Excerpt: This research used additional cell lines: SKOV3 (ovarian cancer, ATCC # HTB-77), HS578T (breast cancer, ATCC # HTB-126), T47D (breast cancer, ATCC #HTB-1336), modified line of non-small cells lung cancer A549, line of metastatic melanoma of skin Mel Kor (RF Patent No. 2287578), and additional study of antiangiogenic activity—cell line SVEC-4-10 (endothelial cells, ATCC #CRL-2181).
The cells were cultivated in environment RPMI-1640 (PANECO) (SKOV3, HS578T, T47D, Mel-Kor) or DMEM (PANECO) (SVEC-4-10) containing 10% of embryonal serum cattle (FCS, HyClone), 2 mM glutamine (PANECO), antibiotics (100 IU/mL penicillin and […] streptomycin (all PANECO)) at 37° C. and 5% CO2. Cells at 70-80% monolayer were used for the experiments.
The cells were planted in low density (30 t of cells/ml) in triplets on a 96-cavity plate in an environment containing 0.1% of FCS serum. […] Growth of cells was determined by the modified “Crystal Violet mitogenic method” for 7 days after the experiment start. […] The dye was dissolved in ethanol and measured on a spectrophotometer at 540-560 nm. The curve of cell proliferative activity inhibition was built by the dependence of the percent of the cell quantity (Y axis) on concentration of inhibitor RPT835 in the cavity of the plate (X axis). […]

[3] = target: T1, FRS2α (Homo sapiens, UniProt Q8WU20); assay: FRS2α phosphorylation in hFOB cells (Western blotting); assay type: cell-based; parameters: endogenous in cells; host or cells: hFOB; conditions: hFOB (FGFR2 IIIc), RPT835 1 micron, FGF-1 100 ng/ml
T1 sequence (Q8WU20 1-508): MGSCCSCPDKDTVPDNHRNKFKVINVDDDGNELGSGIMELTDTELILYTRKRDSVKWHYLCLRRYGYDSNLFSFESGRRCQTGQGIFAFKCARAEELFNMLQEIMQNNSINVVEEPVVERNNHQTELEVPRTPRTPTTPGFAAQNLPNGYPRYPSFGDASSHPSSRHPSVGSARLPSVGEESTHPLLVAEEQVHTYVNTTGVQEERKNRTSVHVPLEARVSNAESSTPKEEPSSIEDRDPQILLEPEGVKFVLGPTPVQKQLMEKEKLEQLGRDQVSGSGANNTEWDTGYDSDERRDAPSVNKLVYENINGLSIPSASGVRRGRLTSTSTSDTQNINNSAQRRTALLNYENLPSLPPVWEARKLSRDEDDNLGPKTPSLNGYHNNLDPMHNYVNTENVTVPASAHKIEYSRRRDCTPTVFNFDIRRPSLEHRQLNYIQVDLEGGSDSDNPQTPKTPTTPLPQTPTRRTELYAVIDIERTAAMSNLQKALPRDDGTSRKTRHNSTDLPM
Protocol: (§1) The research assessed the influence of inhibitor RPT835 determined by formula II of this invention, intervention with interaction of FGFR2 represented by two most frequent isoforms IIIb and IIIc with FRS2. For this, human cell line of embryonal osteoblasts (hFOB) expressing only FGFR2 […], and human cell line of breast cancer SUM-52 expressing FGFR2 IIIb (all main versions of isoform—C1, C2, C3) were chosen.
(§2) Cells were divided into the groups: • 1a) hFOB • 1b) hFOB, stimulating FGF-1 (100 ng/ml) • 1c) hFOB, cultivation with RPT835 (1 micron) and stimulation of FGF-1 (100 ng/ml) • 2a) SUM-52 • 2b) SUM-52, stimulation of FGF-1 (100 ng/ml) • 2c) SUM-52, cultivation with RPT835 (1 micron) and stimulation of FGF-1 (100 ng/ml)

[4] = reaction of immune complexes, general anaphylaxis, degranulation of mast cells, conjuctival test
[5] = Acute toxicity; assay type: in vivo; conditions: acute administration
Excerpt: Besides, acute toxicity of inhibitor RPT835 was studied in the following volume in a separate research: • Acute toxicity of the medicine was researched. […] The state of the animals after acute administration testifies of good tolerability of the medicine in doses exceeding the maximal therapeutic ones (about 4.3 mcg/kg) tens—hundreds of times.

[6] = target: T1, FRS2α; assay: FRS2α phosphorylation in SUM-52 cells (Western blotting); assay type: cell-based; parameters: endogenous in cells; host or cells: hFOB; conditions: SUM-52 (FGFR2 IIIb), RPT835 1 micron, FGF-1 100 ng/ml
Protocol: as §1, §2

Cc1cc([N+](=O)[O-])c(NS(=O)(=O)c2cccc(C(=O)O)c2)cc1-c1cccnc1 [RPT835, 3-(N-(4-methyl-2-nitro-5-(pyridin-3-yl)phenyl)sulfamoyl)benzoic acid]
Slowdown of the tumor growth ([1]; 30 day, 30 mg/kg daily): 60.2%
average size of the tumor ([1]; 30 day, 30 mg/kg daily through a stomach tube): 1,080.7±49 mm3
Size of tumor (median) ([1]; Day 7, 30 mg/kg daily through a stomach tube): 48.0 mm3
Size of tumor (median) ([1]; Day 10, 30 mg/kg daily through a stomach tube): 112.0 mm3
Size of tumor (median) ([1]; Day 13, 30 mg/kg daily through a stomach tube): 181.0 mm3
Size of tumor (median) ([1]; Day 16, 30 mg/kg daily through a stomach tube): 256.0 mm3
Size of tumor (median) ([1]; Day 19, 30 mg/kg daily through a stomach tube): 417.0 mm3
Size of tumor (median) ([1]; Day 22, 30 mg/kg daily through a stomach tube): 591.0 mm3
Size of tumor (median) ([1]; Day 25, 30 mg/kg daily through a stomach tube): 831.5 mm3
Size of tumor (median) ([1]; Day 28, 30 mg/kg daily through a stomach tube): 958.5 mm3
Size of tumor (median) ([1]; Day 31, 30 mg/kg daily through a stomach tube): 1,088.0 mm3
Size of tumor (median) ([1]; Day 34, 30 mg/kg daily through a stomach tube): 1,134 mm3
Size of tumor (median) ([1]; Day 37, 30 mg/kg daily through a stomach tube): 1,174 mm3
Size of tumor (median) ([1]; Day 40, 30 mg/kg daily through a stomach tube): 1,208 mm3
inhibition of proliferative activity [2]: moderate effect
FRS2α phosphorylation level [3]: completely suppressed the phosphorylation
allergic properties [4]: does not show any allergic properties
toxicity class (Hodge; Sidorov) ([5]; 14 days observation, necropsy): IV class of low toxicity
LD50 at 14 days ([5]; in vivo, read-out: Median lethal dose (LD50)): > 2000 mg/kg
FRS2α phosphorylation level [6]: completely suppressed the phosphorylation
